Measured values published in the supplement of paper PMC10307832.

Tests used:
Assay in all cases: relative viability (nuclei count vs DMSO), 5 days (fraction); higher = more cells survive
[1] = compound: CC(C)C[C@@H](C(=O)N[C@H](C(=O)OC1CCCC1)c1ccccc1)[C@H](O)C(=O)NO [Tosedostat] + Nc1nc2[nH]cc(CCc3ccc(C(=O)N[C@@H](CCC(=O)O)C(=O)O)cc3)c2c(=O)[nH]1 [Pemetrexed] (partner 0.2 µM)
Procedure, shortened: (§1)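 The day after seeding in 1536-well plates, lung cancer cell lines were treated by pin tool with a single drug, or with a fixed anchor-drug dose together with five library-drug doses (not always all listed) in √10 steps. After 5 days, a combined fix-and-stain solution (final 0.05% Triton X-100, 1% formaldehyde, 1 ug/ml Hoechst) was added. Nuclei counted on 4× images gave relative viability as treated counts over vehicle counts, reported as the median of duplicate plates.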

[2] = compound: CC(C)C[C@@H](C(=O)N[C@H](C(=O)OC1CCCC1)c1ccccc1)[C@H](O)C(=O)NO [Tosedostat] + COc1cc2c(Oc3ccc(NC(=O)C4(C(=O)Nc5ccc(F)cc5)CC4)cc3F)ccnc2cc1OCCCN1CCOCC1 [Foretinib] (partner 0.25 µM)
Procedure, shortened: as §1

[3] = compound: CC1=NN=C(O1)C2=NN=C(C=C2)N3CCC(CC3)OC4=C(C=CC(=C4)F)Cl + CC(C)C[C@H](NC(=O)[C@H](Cc1ccccc1)NC(=O)c1cnccn1)B(O)O [Bortezomib] (partner 0.002 µM)
Procedure, shortened: as §1

[4] = compound: CC1=NN=C(O1)C2=NN=C(C=C2)N3CCC(CC3)OC4=C(C=CC(=C4)F)Cl + C[C@@H](Oc1cc(-c2cnn(C3CCNCC3)c2)cnc1N)c1c(Cl)ccc(F)c1Cl [Crizotinib] (partner 1 µM)
Procedure, shortened: as §1

UMC-11
relative viability ([1]; first compound 0.02 µM): 0.86 | relative viability ([1]; first compound 0.06325 µM): 0.723 | relative viability ([1]; first compound 0.2 µM): 0.85 | relative viability ([1]; first compound 0.6325 µM): 0.84 | relative viability ([1]; first compound 2 µM): 0.94 | relative viability ([2]; first compound 0.02 µM): 1.22 | relative viability ([2]; first compound 0.06325 µM): 0.969 | relative viability ([2]; first compound 0.2 µM): 1.02 | relative viability ([2]; first compound 0.6325 µM): 1.09 | relative viability ([2]; first compound 2 µM): 1.03 | relative viability ([3]; first compound 0.253 µM): 0.66 | relative viability ([3]; first compound 0.8 µM): 0.533 | relative viability ([3]; first compound 2.53 µM): 0.636 | relative viability ([3]; first compound 8 µM): 0.575 | relative viability ([4]; first compound 0.253 µM): 0.468 | relative viability ([4]; first compound 0.8 µM): 0.474 | relative viability ([4]; first compound 2.53 µM): 0.476 | relative viability ([4]; first compound 8 µM): 0.487
